We go through eight compounds from patent US9809623B2, “α4β7 peptide monomer and dimer antagonists” (Protagonist Therapeutics, Inc., priority 2014, dated 2017).

As a reminder, the IC50 is the midpoint of a concentration-inhibition curve.

One data set concerns the target T1, α4β1 (Homo sapiens, UniProt P05556+P13612, DEL729-798).
T1 construct: purchased R&D Systems 5668-A4
Nature of the data set: α4β1-VCAM Competition ELISA. The format is binding. To be noted: Table 3-B, Selectivity (α4β1); range classes; read-out: α4β1 ELISA IC50. The essentials: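 ELISA plates were coated with VCAM-1 Fc at 400 ng/well. Peptide dilutions (highest final 100 μM) and 60 nM α4β1 were incubated 2 h at 37 °C in pH 7.6 Tris buffer containing 1 mM Mn2+ or Mg2+. Integrin retained on the plate was detected by 9F10 antibody, then HRP secondary, with TMB absorbance at 450 nm.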
On the technique in general: In an ELISA, binding on a coated surface is turned into a signal by an enzyme label.

A short description of data set [1]: Simulated Intestinal Fluid (SIF) Stability Assay. The format is in vitro ADME, porcine. To be noted: for half-life at 22 μM: pig, pH 6.5, Table 3-B. The method, boiled down:
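Intestinal stability: percent peptide remaining over time, by LC-MS/MS peak-area ratio to internal standard, fitted to first-order decay for half-life. Conditions: 22 μM peptide, 1% pancreatin in pH 6.5 blank FASSIF, 37 °C.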

The target in the next data set is α4β7 (Homo sapiens, UniProt P13612+P26010). Briefly: α4β7-MAdCAM Cell Adhesion Assay (RPMI 8866 human cells). The format is cell-based. More on the design: host or cells: RPMI 8866 human B lymphoblastoid cells. The note with it: Table 3-B, Potency (α4β7); range classes; read-out: α4β7 cell (Hu) IC50. The method, boiled down: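 Adhesion read-out: MTT absorbance at 570 nm minus no-cell wells, after three washes. Plates coated with rh MAdCAM-1/Fc received peptide dilutions plus 200,000 RPMI 8866 cells in Mn2+ (1 mM)-supplemented DMEM, 0.1% BSA, HEPES pH 7, incubated 30-45 min, 37 °C.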
Chain of α4β7 (P13612 34-1032): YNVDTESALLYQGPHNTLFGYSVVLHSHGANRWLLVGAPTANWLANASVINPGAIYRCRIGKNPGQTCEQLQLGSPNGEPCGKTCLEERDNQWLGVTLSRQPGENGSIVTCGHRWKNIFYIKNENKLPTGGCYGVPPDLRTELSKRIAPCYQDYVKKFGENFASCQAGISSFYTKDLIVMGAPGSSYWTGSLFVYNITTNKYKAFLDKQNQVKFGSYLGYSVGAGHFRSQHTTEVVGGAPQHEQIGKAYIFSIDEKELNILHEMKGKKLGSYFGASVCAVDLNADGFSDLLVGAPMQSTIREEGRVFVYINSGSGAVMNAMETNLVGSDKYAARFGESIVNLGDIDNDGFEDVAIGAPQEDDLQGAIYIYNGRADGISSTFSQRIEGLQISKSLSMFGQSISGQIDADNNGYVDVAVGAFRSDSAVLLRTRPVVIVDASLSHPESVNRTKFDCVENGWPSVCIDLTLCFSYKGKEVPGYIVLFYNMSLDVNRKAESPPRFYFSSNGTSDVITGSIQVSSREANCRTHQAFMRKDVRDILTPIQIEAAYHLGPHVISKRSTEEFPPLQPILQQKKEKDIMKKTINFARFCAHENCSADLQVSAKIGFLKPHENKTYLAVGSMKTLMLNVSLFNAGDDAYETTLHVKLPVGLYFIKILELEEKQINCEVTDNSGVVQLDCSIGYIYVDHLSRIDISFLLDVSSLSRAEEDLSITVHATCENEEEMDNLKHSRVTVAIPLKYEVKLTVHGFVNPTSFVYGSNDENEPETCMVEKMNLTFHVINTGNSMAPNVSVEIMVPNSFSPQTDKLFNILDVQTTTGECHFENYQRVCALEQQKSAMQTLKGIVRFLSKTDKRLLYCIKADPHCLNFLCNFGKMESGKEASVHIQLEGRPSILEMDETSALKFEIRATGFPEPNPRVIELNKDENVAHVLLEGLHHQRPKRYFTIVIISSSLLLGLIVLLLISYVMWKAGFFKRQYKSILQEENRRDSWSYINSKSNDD
Chain of α4β7 (P26010 20-798): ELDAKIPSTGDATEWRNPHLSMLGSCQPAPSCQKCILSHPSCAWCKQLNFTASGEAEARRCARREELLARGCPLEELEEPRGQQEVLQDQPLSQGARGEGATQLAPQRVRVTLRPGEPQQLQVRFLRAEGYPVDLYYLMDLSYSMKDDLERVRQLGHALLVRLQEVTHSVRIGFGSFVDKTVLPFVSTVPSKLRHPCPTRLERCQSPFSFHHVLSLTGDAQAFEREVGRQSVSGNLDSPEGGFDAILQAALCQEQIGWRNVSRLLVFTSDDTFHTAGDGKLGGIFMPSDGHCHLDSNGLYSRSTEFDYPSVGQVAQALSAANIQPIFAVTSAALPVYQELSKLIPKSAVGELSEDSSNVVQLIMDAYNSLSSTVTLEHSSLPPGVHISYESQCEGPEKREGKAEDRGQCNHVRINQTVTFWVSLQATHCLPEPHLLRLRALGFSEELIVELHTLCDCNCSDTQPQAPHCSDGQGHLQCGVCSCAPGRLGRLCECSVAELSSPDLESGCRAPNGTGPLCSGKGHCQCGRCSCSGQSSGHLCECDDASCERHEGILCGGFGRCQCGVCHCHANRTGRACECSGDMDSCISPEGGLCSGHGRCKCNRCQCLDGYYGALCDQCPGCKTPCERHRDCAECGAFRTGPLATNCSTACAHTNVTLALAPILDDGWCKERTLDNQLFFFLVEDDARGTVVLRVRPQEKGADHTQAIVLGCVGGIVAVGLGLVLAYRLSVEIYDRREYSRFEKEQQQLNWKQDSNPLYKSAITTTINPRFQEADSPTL

[2] abbreviates: simulated intestinal fluid (SIF) with 1% porcine pancreatin, > means experiment was stopped at that time and half life was not reached, read-out: Stabilty SIF t1/2.
The mark [3] stands for this setting: simulated intestinal fluid (SIF) with 1% porcine pancreatin, alone or in parentheses after >360, read-out: Stabilty SIF t1/2, in hr (converted).

Several values for one entry are separate records, joined by “and”; a condition that tells them apart may be missing. Identical values can stand only once. Like-named read-outs stand apart in the source and are kept apart here. Numbered stars: 1 amine (or outer) side, 2 acyl side, 3 side chain; on linkers, the order of the positions; unused ones are H or OH. Bridge positions count the residues as written; N and C are the ends. Square brackets hold non-standard residues; d marks the D form. Peptide text beside a SMILES is read from it. I, II: the chains in the order shown. Phe(4-COOH) = N[C@@H](Cc1ccc(C(=O)O)cc1)C(=O)O; Phe(4-tBu) = CC(C)(C)c1ccc(C[C@H](N)C(=O)O)cc1; Bip = N[C@@H](Cc1ccc(-c2ccccc2)cc1)C(=O)O; Diglycolyl = O=C(COCC(=O)[*:2])[*:1]; NMeR = CN[C@@H](CCCNC(=N)N)C(=O)O; β3hE = N[C@@H](CCC(=O)O)CC(=O)O; NMeK = CN[C@@H](CCCCN)C(=O)O; Pen = CC(C)(S)[C@H](N)C(=O)O

T1 sequence (P13612 34-977 limits assumed, stated change not applied): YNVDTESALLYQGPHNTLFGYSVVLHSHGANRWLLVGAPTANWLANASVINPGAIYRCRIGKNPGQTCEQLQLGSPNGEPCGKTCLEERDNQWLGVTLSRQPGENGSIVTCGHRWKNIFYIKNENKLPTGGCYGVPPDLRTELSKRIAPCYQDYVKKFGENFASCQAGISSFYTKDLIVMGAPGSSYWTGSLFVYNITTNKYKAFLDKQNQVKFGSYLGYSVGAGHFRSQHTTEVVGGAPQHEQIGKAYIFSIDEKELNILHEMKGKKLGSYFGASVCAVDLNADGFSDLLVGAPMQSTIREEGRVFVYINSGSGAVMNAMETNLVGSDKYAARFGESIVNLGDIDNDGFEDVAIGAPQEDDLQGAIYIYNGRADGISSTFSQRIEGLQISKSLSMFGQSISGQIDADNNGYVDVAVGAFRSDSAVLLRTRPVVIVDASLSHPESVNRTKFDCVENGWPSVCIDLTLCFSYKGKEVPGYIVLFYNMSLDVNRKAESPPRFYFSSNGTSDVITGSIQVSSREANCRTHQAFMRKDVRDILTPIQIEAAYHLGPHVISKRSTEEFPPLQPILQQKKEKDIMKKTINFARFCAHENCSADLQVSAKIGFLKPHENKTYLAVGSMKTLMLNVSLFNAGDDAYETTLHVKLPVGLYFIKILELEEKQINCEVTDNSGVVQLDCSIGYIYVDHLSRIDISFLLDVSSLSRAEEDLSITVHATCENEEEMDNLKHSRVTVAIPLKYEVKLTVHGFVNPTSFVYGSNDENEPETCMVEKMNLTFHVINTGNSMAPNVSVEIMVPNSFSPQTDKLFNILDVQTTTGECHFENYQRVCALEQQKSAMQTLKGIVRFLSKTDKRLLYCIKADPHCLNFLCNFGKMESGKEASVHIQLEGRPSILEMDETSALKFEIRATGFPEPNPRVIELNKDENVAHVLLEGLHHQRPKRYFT
T1 sequence (P05556 21-728 limits assumed, stated change not applied): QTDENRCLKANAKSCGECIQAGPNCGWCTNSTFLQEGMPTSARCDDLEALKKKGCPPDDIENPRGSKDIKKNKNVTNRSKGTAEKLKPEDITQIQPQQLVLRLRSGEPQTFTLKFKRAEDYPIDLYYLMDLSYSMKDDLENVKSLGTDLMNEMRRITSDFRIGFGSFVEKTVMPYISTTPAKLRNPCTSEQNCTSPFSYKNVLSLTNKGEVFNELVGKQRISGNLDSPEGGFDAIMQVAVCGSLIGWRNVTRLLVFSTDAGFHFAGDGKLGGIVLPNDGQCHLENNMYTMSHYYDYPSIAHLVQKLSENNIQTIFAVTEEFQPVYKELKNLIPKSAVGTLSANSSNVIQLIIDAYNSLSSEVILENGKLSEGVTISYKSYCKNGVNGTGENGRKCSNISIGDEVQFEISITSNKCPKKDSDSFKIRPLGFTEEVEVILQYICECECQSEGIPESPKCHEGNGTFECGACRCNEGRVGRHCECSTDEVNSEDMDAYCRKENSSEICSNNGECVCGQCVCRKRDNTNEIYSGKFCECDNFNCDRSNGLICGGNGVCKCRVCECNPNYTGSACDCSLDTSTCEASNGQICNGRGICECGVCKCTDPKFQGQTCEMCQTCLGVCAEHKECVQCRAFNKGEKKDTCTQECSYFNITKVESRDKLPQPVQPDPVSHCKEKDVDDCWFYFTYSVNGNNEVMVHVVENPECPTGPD

For the compound `CC(=O)N[C@@H]1C(=O)N(C)[C@@H](CCCNC(=N)N)C(=O)N[C@@H](CO)C(=O)N[C@@H](CC(=O)O)C(=O)N[C@@H]([C@@H](C)O)C(=O)N[C@@H](CC(C)C)C(=O)N[C@H](C(=O)N[C@@H](Cc2ccc(C(=O)O)cc2)C(=O)N[C@@H](CCC(=O)O)C(=O)N[C@H](CCCCNC(=O)COCC(=O)NCCCC[C@@H](NC(=O)[C@H](CCC(=O)O)NC(=O)[C@H](Cc2ccc(C(=O)O)cc2)NC(=O)[C@H]2NC(=O)[C@H](CC(C)C)NC(=O)[C@H]([C@@H](C)O)NC(=O)[C@H](CC(=O)O)NC(=O)[C@H](CO)NC(=O)[C@H](CCCNC(=N)N)N(C)C(=O)[C@@H](NC(C)=O)C(C)(C)SSC2(C)C)C(N)=O)C(N)=O)C(C)(C)SSC1(C)C` [compound 129] (I: Ac-[Pen][NMeR]SDTL[Pen][Phe(4-COOH)]E[dK]-NH2 / II: Ac-[Pen][NMeR]SDTL[Pen][Phe(4-COOH)]E[dK]-NH2; disulfide I:1-I:7, II:1-II:7; linker I:10-II:10 via Diglycolyl), the IC50 was 100 to 500 nM at α4β1 and less than 10 nM at α4β7. For the same compound, the half-life at 22 μM was more than 6 h in data set [1] (setting [2]) and 13 h in data set [1] (setting [3]).

Turning to `CC(=O)N[C@@H]1C(=O)N(C)[C@@H](CCCNC(=N)N)C(=O)N[C@@H](CO)C(=O)N[C@@H](CC(=O)O)C(=O)N[C@@H]([C@@H](C)O)C(=O)N[C@@H](CC(C)C)C(=O)N[C@H](C(=O)N[C@@H](Cc2ccc(C(=O)O)cc2)C(=O)N[C@@H](CCC(=O)O)CC(=O)N[C@H](CCCCNC(=O)COCC(=O)NCCCC[C@@H](NC(=O)C[C@H](CCC(=O)O)NC(=O)[C@H](Cc2ccc(C(=O)O)cc2)NC(=O)[C@H]2NC(=O)[C@H](CC(C)C)NC(=O)[C@H]([C@@H](C)O)NC(=O)[C@H](CC(=O)O)NC(=O)[C@H](CO)NC(=O)[C@H](CCCNC(=N)N)N(C)C(=O)[C@@H](NC(C)=O)C(C)(C)SSC2(C)C)C(N)=O)C(N)=O)C(C)(C)SSC1(C)C` [compound 130] (I: Ac-[Pen][NMeR]SDTL[Pen][Phe(4-COOH)][β3hE][dK]-NH2 / II: Ac-[Pen][NMeR]SDTL[Pen][Phe(4-COOH)][β3hE][dK]-NH2; disulfide I:1-I:7, II:1-II:7; linker I:10-II:10 via Diglycolyl), the IC50 on α4β1 was 100 to 500 nM; on α4β7 it was less than 10 nM. Besides, the figures for the half-life at 22 μM in data set [1] (setting [2]) and in data set [1] (setting [3]) were more than 6 h and 16 h, respectively.

With `CC(=O)N[C@@H]1C(=O)N(C)[C@@H](CCCNC(=N)N)C(=O)N[C@@H](CO)C(=O)N[C@@H](CC(=O)O)C(=O)N[C@@H]([C@@H](C)O)C(=O)N[C@@H](CC(C)C)C(=O)N[C@H](C(=O)N[C@@H](Cc2ccc(C(C)(C)C)cc2)C(=O)N[C@@H](CCC(=O)O)CC(=O)N[C@H](CCCCNC(=O)COCC(=O)NCCCC[C@@H](NC(=O)C[C@H](CCC(=O)O)NC(=O)[C@H](Cc2ccc(C(C)(C)C)cc2)NC(=O)[C@H]2NC(=O)[C@H](CC(C)C)NC(=O)[C@H]([C@@H](C)O)NC(=O)[C@H](CC(=O)O)NC(=O)[C@H](CO)NC(=O)[C@H](CCCNC(=N)N)N(C)C(=O)[C@@H](NC(C)=O)C(C)(C)SSC2(C)C)C(N)=O)C(N)=O)C(C)(C)SSC1(C)C` [compound 132] (I: Ac-[Pen][NMeR]SDTL[Pen][Phe(4-tBu)][β3hE][dK]-NH2 / II: Ac-[Pen][NMeR]SDTL[Pen][Phe(4-tBu)][β3hE][dK]-NH2; disulfide I:1-I:7, II:1-II:7; linker I:10-II:10 via Diglycolyl), the IC50 on α4β1 was 100 to 500 nM and 500 to 1000 nM; on α4β7, less than 10 nM. Moreover, the “Stabilty SIF t1/2, in hr” value in data set [1] (Table 3-B, alone or in parentheses after >360) was 11 h. Further, the half-life at 22 μM is more than 6 h in data set [1] (simulated intestinal fluid (SIF) with porcine pancreatin, > means experiment was stopped at that time and half life was not reached, read-out: Stabilty SIF t1/2); 10.7 h in data set [1] (simulated intestinal fluid (SIF) with porcine pancreatin, alone or in parentheses after >360, read-out: Stabilty SIF t1/2, in hr (converted)).

As for `CC(=O)N[C@@H]1C(=O)N(C)[C@@H](CCCNC(=N)N)C(=O)N[C@@H](CO)C(=O)N[C@@H](CC(=O)O)C(=O)N[C@@H]([C@@H](C)O)C(=O)N[C@@H](CC(C)C)C(=O)N[C@H](C(=O)N[C@@H](Cc2ccc(C(=O)O)cc2)C(=O)N[C@@H](CCC(=O)O)C(=O)N(C)[C@@H](CCCCNC(=O)COCC(=O)NCCCC[C@@H](C(N)=O)N(C)C(=O)[C@H](CCC(=O)O)NC(=O)[C@H](Cc2ccc(C(=O)O)cc2)NC(=O)[C@H]2NC(=O)[C@H](CC(C)C)NC(=O)[C@H]([C@@H](C)O)NC(=O)[C@H](CC(=O)O)NC(=O)[C@H](CO)NC(=O)[C@H](CCCNC(=N)N)N(C)C(=O)[C@@H](NC(C)=O)C(C)(C)SSC2(C)C)C(N)=O)C(C)(C)SSC1(C)C` [compound 147] (I: Ac-[Pen][NMeR]SDTL[Pen][Phe(4-COOH)]E[NMeK]-NH2 / II: Ac-[Pen][NMeR]SDTL[Pen][Phe(4-COOH)]E[NMeK]-NH2; disulfide I:1-I:7, II:1-II:7; linker I:10-II:10 via Diglycolyl), the figures for the IC50 at α4β1 and at α4β7 were 100 to 500 nM and less than 10 nM, respectively. Also, the half-life at 22 μM in data set [1] (setting [2]) was more than 5 h.

`CC(=O)N[C@@H]1C(=O)N(C)[C@@H](CCCNC(=N)N)C(=O)N[C@@H](CO)C(=O)N[C@@H](CC(=O)O)C(=O)N[C@@H]([C@@H](C)O)C(=O)N[C@@H](CC(C)C)C(=O)N[C@H](C(=O)N[C@@H](Cc2ccc(C(=O)O)cc2)C(=O)N[C@@H](CCC(=O)O)CC(=O)N(C)[C@@H](CCCCNC(=O)COCC(=O)NCCCC[C@@H](C(N)=O)N(C)C(=O)C[C@H](CCC(=O)O)NC(=O)[C@H](Cc2ccc(C(=O)O)cc2)NC(=O)[C@H]2NC(=O)[C@H](CC(C)C)NC(=O)[C@H]([C@@H](C)O)NC(=O)[C@H](CC(=O)O)NC(=O)[C@H](CO)NC(=O)[C@H](CCCNC(=N)N)N(C)C(=O)[C@@H](NC(C)=O)C(C)(C)SSC2(C)C)C(N)=O)C(C)(C)SSC1(C)C` [compound 148] (I: Ac-[Pen][NMeR]SDTL[Pen][Phe(4-COOH)][β3hE][NMeK]-NH2 / II: Ac-[Pen][NMeR]SDTL[Pen][Phe(4-COOH)][β3hE][NMeK]-NH2; disulfide I:1-I:7, II:1-II:7; linker I:10-II:10 via Diglycolyl): the IC50 on α4β1 is 100 to 500 nM; on α4β7 it was less than 10 nM. In data set [1] (setting [2]), the half-life at 22 μM was more than 5 h.

Regarding `CC(=O)N[C@@H]1C(=O)N(C)[C@@H](CCCNC(=N)N)C(=O)N[C@@H](CO)C(=O)N[C@@H](CC(=O)O)C(=O)N[C@@H]([C@@H](C)O)C(=O)N[C@@H](CC(C)C)C(=O)N[C@H](C(=O)N[C@@H](Cc2ccc(C(C)(C)C)cc2)C(=O)N[C@@H](CCC(=O)O)CC(=O)N(C)[C@@H](CCCCNC(=O)COCC(=O)NCCCC[C@@H](C(N)=O)N(C)C(=O)C[C@H](CCC(=O)O)NC(=O)[C@H](Cc2ccc(C(C)(C)C)cc2)NC(=O)[C@H]2NC(=O)[C@H](CC(C)C)NC(=O)[C@H]([C@@H](C)O)NC(=O)[C@H](CC(=O)O)NC(=O)[C@H](CO)NC(=O)[C@H](CCCNC(=N)N)N(C)C(=O)[C@@H](NC(C)=O)C(C)(C)SSC2(C)C)C(N)=O)C(C)(C)SSC1(C)C` [compound 149] (I: Ac-[Pen][NMeR]SDTL[Pen][Phe(4-tBu)][β3hE][NMeK]-NH2 / II: Ac-[Pen][NMeR]SDTL[Pen][Phe(4-tBu)][β3hE][NMeK]-NH2; disulfide I:1-I:7, II:1-II:7; linker I:10-II:10 via Diglycolyl), the half-inhibitory concentration (IC50) at α4β1 was 500 to 1000 nM; on α4β7, less than 10 nM. Moreover, the half-life at 22 μM in data set [1] (setting [2]) is more than 5 h.

With `CC(=O)N[C@@H]1C(=O)N(C)[C@@H](CCCNC(=N)N)C(=O)N[C@@H](CO)C(=O)N[C@@H](CC(=O)O)C(=O)N[C@@H]([C@@H](C)O)C(=O)N[C@@H](CC(C)C)C(=O)N[C@H](C(=O)N[C@@H](Cc2ccc(-c3ccccc3)cc2)C(=O)N[C@@H](CCC(=O)O)CC(=O)N(C)[C@@H](CCCCNC(=O)COCC(=O)NCCCC[C@@H](C(N)=O)N(C)C(=O)C[C@H](CCC(=O)O)NC(=O)[C@H](Cc2ccc(-c3ccccc3)cc2)NC(=O)[C@H]2NC(=O)[C@H](CC(C)C)NC(=O)[C@H]([C@@H](C)O)NC(=O)[C@H](CC(=O)O)NC(=O)[C@H](CO)NC(=O)[C@H](CCCNC(=N)N)N(C)C(=O)[C@@H](NC(C)=O)C(C)(C)SSC2(C)C)C(N)=O)C(C)(C)SSC1(C)C` [compound 150] (I: Ac-[Pen][NMeR]SDTL[Pen][Bip][β3hE][NMeK]-NH2 / II: Ac-[Pen][NMeR]SDTL[Pen][Bip][β3hE][NMeK]-NH2; disulfide I:1-I:7, II:1-II:7; linker I:10-II:10 via Diglycolyl), the values for the half-inhibitory concentration (IC50) at α4β1 and on α4β7 were 1000 to 10000 nM and less than 10 nM, respectively. For the same compound, the half-life at 22 μM in data set [1] (setting [2]) was more than 5 h.

With `CC(=O)N[C@@H]1C(=O)N(C)[C@@H](CCCNC(=N)N)C(=O)N[C@@H](CO)C(=O)N[C@@H](CC(=O)O)C(=O)N[C@@H]([C@@H](C)O)C(=O)N[C@@H](CC(C)C)C(=O)N[C@H](C(=O)N[C@@H](Cc2ccc(C(C)(C)C)cc2)C(=O)N[C@@H](CCC(=O)O)CC(=O)O)C(C)(C)SSC1(C)C` [compound 152] (Ac-[Pen][NMeR]SDTL[Pen][Phe(4-tBu)][β3hE]-OH; disulfide 1-7), the half-inhibitory concentration (IC50) on α4β1 was 100 to 500 nM; at α4β7, less than 10 nM. The half-life at 22 μM in data set [1] (setting [2]) is 2.45 h.
